The nature of series [1]: Liquid crystallinity: phase transition temperature measured using a polarization microscope. Format: physicochemical. As to the method:
A phase transition temperature of the prepared liquid crystal composition was measured using a polarization microscope.

Series [2] is described as follows: Solubility: presence or absence of precipitation over time in cyclopentanone/methyl ethyl ketone. It is filed as physicochemical. Conditions: 50 mg, cyclopentanone/methyl ethyl ketone 3/1 by weight, solid content 30 wt %, dissolved at 60° C., cooled to room temperature (25° C.), visual precipitation over time. As to the method:
50 mg of each of the liquid crystal compositions prepared in a 1.5 mL sample bottle was weighed, and a solvent (mixture of cyclopentanone/methyl ethyl ketone at a weight ratio of 3/1) was added thereto until the solid content was 30 wt % ([…]).
Next, the mixture was heated to 60° C. and stirred to be dissolved, cooled to room temperature (25° C.), and the presence or absence of precipitation was visually confirmed over time after cooling and evaluated according to the following standard.
C: precipitation occurred within 24 hours at room temperature.

Regarding `C=CC(=O)OCC(C)(C)COC(=O)CCC(=O)OCCc1ccc(OC(=O)C2CCC(C(=O)Oc3c(C(C)(C)C)cc(OC(=O)C4CCC(C(=O)Oc5cc(C(C)(C)C)c(OC(=O)C6CCC(C(=O)Oc7ccc(CCOC(=O)CCC(=O)OCC(C)(C)COC(=O)C=C)cc7)CC6)c6c5SC(=C(C#N)C#N)S6)CC4)c4c3SC(=C(C#N)C#N)S4)CC2)cc1` (centres unmarked) [Comparative Example 1], in series [1], the “Liquid crystallinity: phase transition temperature between isotropic liquid (Iso) and crystal (Cr)” value is “Iso 178 Cr ° C”. Besides, the Solubility result in series [2] is given as “C (precipitation occurred within 24 hours at room temperature)”.
